Test results as given in US7425557B2, “Inhibitors of glycogen synthase kinase 3” (Novartis Vaccines and Diagnostics, Inc., priority 1998, dated 2008).

The compounds below were run against human GSK3β (Homo sapiens, UniProt P49841) (assay: Screening for GSK3 inhibitory activity using a cell-free assay). Conditions: read-out: IC50 with respect to GSK3.
Format: biochemical
Outline: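 Compounds in DMSO were tested against human GSK3β over a three-hour kinase reaction. Radiolabeled phosphate transferred to the peptide was captured on streptavidin plates after EDTA/ATP stop and quantified by scintillation counting. Signal was plotted versus compound concentration.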

Chain of human GSK3β (P49841 whole entry): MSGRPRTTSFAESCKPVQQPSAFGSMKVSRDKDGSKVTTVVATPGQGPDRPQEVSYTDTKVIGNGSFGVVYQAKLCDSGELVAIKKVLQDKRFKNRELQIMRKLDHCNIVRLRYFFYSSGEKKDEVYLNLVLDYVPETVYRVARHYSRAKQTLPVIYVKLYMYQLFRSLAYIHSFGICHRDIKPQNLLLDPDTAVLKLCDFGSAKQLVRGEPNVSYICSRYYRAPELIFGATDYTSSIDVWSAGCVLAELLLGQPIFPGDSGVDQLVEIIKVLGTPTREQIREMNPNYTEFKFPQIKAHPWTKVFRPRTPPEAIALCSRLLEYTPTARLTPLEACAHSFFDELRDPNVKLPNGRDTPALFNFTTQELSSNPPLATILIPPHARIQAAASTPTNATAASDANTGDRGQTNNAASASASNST

Compound | IC50 [µM]
CCOC(=O)c1cnc(NCCNc2ccc([N+](=O)[O-])c(N)n2)nc1-c1ccc(N2CCOCC2)cc1 [ethyl 2-({2-[(6-amino-5-nitro(2-pyridyl))amino]-ethyl}amino)-4-(4-morpholin-4-ylphenyl)pyrimidine-5-carboxylate] | ≤ 1
CCOC(=O)c1cnc(NCCNc2ccc([N+](=O)[O-])c(N)n2)nc1-c1ccc(Cl)cc1Cl [ethyl 2-({2-[(6-amino-5-nitro(2-pyridyl))amino]ethyl}amino)-4-(2,4-dichlorophenyl)-pyrimidine-5-carboxylate] | ≤ 1
CCOC(=O)c1cnc(NCCNc2ccc([N+](=O)[O-])c(N)n2)nc1-c1ccc(-c2cnco2)cc1 [ethyl 2-({2-[(6-amino-5-nitro(2-pyridyl))amino]ethyl}amino)-4-(4-(1,3-oxazol-5-yl)phenyl)pyrimidine-5-carboxylate] | ≤ 1
CCOC(=O)c1cnc(NCCNc2ccc([N+](=O)[O-])c(N)n2)nc1-c1ccc(C#N)cc1 [ethyl 2-({2-[(6-amino-5-nitro(2-pyridyl))amino]ethyl}amino)-4-(4-cyanophenyl)pyrimidine-5-carboxylate] | ≤ 1
CCOC(=O)c1cnc(NCCNc2ccc([N+](=O)[O-])cn2)nc1-c1ccc(Cl)cc1Cl [ethyl 4-(2,4-dichlorophenyl)-2-({2-[(5-nitro(2-pyridyl))amino]ethyl}amino)-pyrimidine-5-carboxylate] | ≤ 1
CCOC(=O)c1cnc(NCCNc2ccc([N+](=O)[O-])cn2)nc1-c1ccc(F)cc1F [ethyl 4-(2,4-difluorophenyl)-2-({2-[(5-nitro(2-pyridyl))amino]ethyl}amino)pyrimidine-5-carboxylate] | ≤ 10
CCOC(=O)c1cnc(NCCc2ccccn2)nc1-c1ccco1 [ethyl 4-(2-furyl)-2-[(2-(2-pyridyl)ethyl)amino]pyrimidine-5-carboxylate] | ≤ 10
CCOC(=O)c1cnc(NCCNc2ccc([N+](=O)[O-])cn2)nc1-c1ccc2ccccc2c1 [ethyl 4-(2-naphthyl)-2-({2-[(5-nitro(2-pyridyl))amino]-ethyl}amino)pyrimidine-5-carboxylate] | ≤ 1
CCOC(=O)c1cnc(NCCNc2ccc([N+](=O)[O-])cn2)nc1-c1ccc(Cl)c(Cl)c1 [ethyl 4-(3,4-dichlorophenyl)-2-({2-[(5-nitro(2-pyridyl))amino]ethyl}amino)pyrimidine-5-carboxylate] | ≤ 10
CCOC(=O)c1cnc(NCCNc2ccc([N+](=O)[O-])cn2)nc1-c1ccc(F)c(F)c1 [ethyl 4-(3,4-difluorophenyl)-2-({2-[(5-nitro(2-pyridyl))amino]ethyl}amino)pyrimidine-5-carboxylate] | ≤ 1
CCOC(=O)c1cnc(NCCNc2ccc([N+](=O)[O-])cn2)nc1-c1ccc(OC)c(OC)c1 [ethyl 4-(3,4-dimethoxyphenyl)-2-({2-[(5-nitro(2-pyridyl))amino]ethyl}amino)pyrimidine-5-carboxylate] | ≤ 10
CCOC(=O)c1cnc(NCCNc2ccc([N+](=O)[O-])cn2)nc1-c1ccc(C)c(C)c1 [ethyl 4-(3,4-dimethylphenyl)-2-[{2-[(5-nitro(2-pyridyl))amino]ethyl}amino)pyrimidine-5-carboxylate] | ≤ 10
CCOC(=O)c1cnc(NCCNc2ccc([N+](=O)[O-])cn2)nc1-c1cc(Cl)cc(Cl)c1 [ethyl 4-(3,5-dichlorophenyl)-2-({2-[(5-nitro(2-pyridyl))amino]ethyl}amino)-pyrimidine-5-carboxylate] | ≤ 10
CCOC(=O)c1cnc(NCCNc2ccc([N+](=O)[O-])cn2)nc1-c1cccc(C#N)c1 [ethyl 4-(3-cyanophenyl)-2-({2-[(5-nitro(2-pyridyl))amino]ethyl}amino)pyrimidine-5-carboxylate] | ≤ 10
CCOC(=O)c1cnc(NCCNc2ccc([N+](=O)[O-])cn2)nc1-c1cccc(F)c1 [ethyl 4-(3-fluorophenyl)-2-({2-[(5-nitro(2-pyridyl))amino]ethyl}amino)pyrimidine-5-carboxylate] | ≤ 10
CCOC(=O)c1cnc(NCCc2ccccn2)nc1-c1cccc([N+](=O)[O-])c1 [ethyl 4-(3-nitrophenyl)-2-[(2-(2-pyridyl)ethyl)-amino]pyrimidine-5-carboxylate] | ≤ 10
CCOC(=O)c1cnc(NCCNc2ccccn2)nc1-c1cccc([N+](=O)[O-])c1 [ethyl 4-(3-nitrophenyl)-2-{[2-(2-pyridylamino)ethyl]amino}pyrimidine-5-carboxylate] | ≤ 10
CCOC(=O)c1cnc(NCCNc2ccc([N+](=O)[O-])cn2)nc1-c1ccc(-c2nnn[nH]2)cc1 [ethyl 4-(4-(1H-1,2,3,4-tetraazol-5-yl)phenyl)-2-({2-[(5-nitro(2-pyridyl))amino]ethyl}amino)pyrimidine-5-carboxylate] | ≤ 1
CCOC(=O)c1cnc(NCCNc2ccc([N+](=O)[O-])cn2)nc1-c1ccc(Br)cc1 [ethyl 4-(4-bromophenyl)-2-({2-[(5-nitro(2-pyridyl))amino]ethyl}amino)pyrimidine-5-carboxylate] | ≤ 1

Compound | IC50 [µM]
CCCCOc1ccc(-c2nc(NCCNc3ccc([N+](=O)[O-])cn3)ncc2C(=O)OCC)cc1 [ethyl 4-(4-butoxyphenyl)-2-({2-[(5-nitro(2-pyridyl))amino]ethyl}amino)pyrimidine-5-carboxylate] | ≤ 10
CCOC(=O)c1c(CC)nc(NCCNc2ccc(C#N)cn2)nc1-c1ccc(C(N)=O)cc1 [ethyl 4-(4-carbamoylphenyl)-2-({2-[(5-cyano(2-pyridyl))amino]ethyl}amino)-6-ethylpyrimidine-5-carboxylate] | ≤ 1
CCOC(=O)c1c(-c2ccc(C(N)=O)cc2)nc(NCCNc2ccc([N+](=O)[O-])cn2)nc1-c1ccc([N+](=O)[O-])cc1 [ethyl 4-(4-carbamoylphenyl)-2-({2-[(5-nitro(2-pyridyl))amino]ethyl}-amino)-6-(4-nitrophenyl)pyrimidine-5-carboxylate] | ≤ 1
CCOC(=O)c1c(CC)nc(NCCNc2ncccc2[N+](=O)[O-])nc1-c1ccc(C(N)=O)cc1 [ethyl 4-(4-carbamoylphenyl)-6-ethyl-2-({2-[(3-nitro(2-pyridyl))amino]ethyl}amino)pyrimidine-5-carboxylate] | ≤ 10
CCOC(=O)c1c(CC)nc(NCCNc2ccc([N+](=O)[O-])cn2)nc1-c1ccc(C(N)=O)cc1 [ethyl 4-(4-carbamoylphenyl)-6-ethyl-2-({2-[(5-nitro(2-pyridyl))amino]ethyl}amino)pyrimidine-5-carboxylate] | ≤ 1
CCOC(=O)c1c(CC)nc(NCCCNc2ccc([N+](=O)[O-])cn2)nc1-c1ccc(C(N)=O)cc1 [ethyl 4-(4-carbamoylphenyl)-6-ethyl-2-({3-[(5-nitro(2-pyridyl))amino]propyl}amino)pyrimidine-5-carboxylate] | ≤ 10
CCOC(=O)c1c(CC)nc(NCCNc2ccc(C(F)(F)F)cn2)nc1-c1ccc(C(N)=O)cc1 [ethyl 4-(4-carbamoylphenyl)-6-ethyl-2-[(2-{[5-(trifluoromethyl)(2-pyridyl)]amino}-ethyl)amino]pyrimidine-5-carboxylate] | ≤ 10
CCOC(=O)c1c(CC)nc(NCCNc2ccccn2)nc1-c1ccc(C(N)=O)cc1 [ethyl 4-(4-carbamoylphenyl)-6-ethyl-2-{[2-(2-pyridylamino)ethyl]-amino}pyrimidine-5-carboxylate] | ≤ 10
CCOC(=O)c1c(CC)nc(NCCNc2ncccn2)nc1-c1ccc(C(N)=O)cc1 [ethyl 4-(4-carbamoylphenyl)-6-ethyl-2-{[2-(pyrimidin-2-ylamino)ethyl]amino}pyrimidine-5-carboxylate] | ≤ 10
CCOC(=O)c1cnc(NCCNc2ccc([N+](=O)[O-])cn2)nc1-c1ccc(Cl)cc1 [ethyl 4-(4-chlorophenyl)-2-({2-[(5-nitro(2-pyridyl))amino]ethyl}amino)pyrimidine-5-carboxylate] | ≤ 1
CCOC(=O)c1c(CC)nc(NCCNc2ccc([N+](=O)[O-])cn2)nc1-c1ccc(C#N)cc1 [ethyl 4-(4-cyano-phenyl)-6-ethyl-2-({2-[(5-nitro(2-pyridyl))amino]ethyl}amino)pyrimidine-5-carboxylate] | ≤ 1
CCOC(=O)c1cnc(NCCNc2cc(C)c([N+](=O)[O-])cn2)nc1-c1ccc(C#N)cc1 [ethyl 4-(4-cyanophenyl)-2-({2-[(4-methyl-5-nitro(2-pyridyl))amino]ethyl}amino)pyrimidine-5-carboxylate] | ≤ 1
CCOC(=O)c1cnc(NCCNc2ccc([N+](=O)[O-])cc2)nc1-c1ccc(C#N)cc1 [ethyl 4-(4-cyanophenyl)-2-({2-[(4-nitrophenyl)amino]ethyl}amino)-pyrimidine-5-carboxylate] | ≤ 1
CCOC(=O)c1c(-c2ccc(C#N)cc2)nc(NCCNc2ccc([N+](=O)[O-])cn2)nc1-c1ccc([N+](=O)[O-])cc1 [ethyl 4-(4-cyanophenyl)-2-({2-[(5-nitro(2-pyridyl))amino]ethyl}amino)-6-(4-nitrophenyl)pyrimidine-5-carboxylate] | ≤ 1
CCOC(=O)c1cnc(NCCNc2ccc([N+](=O)[O-])cn2)nc1-c1ccc(C#N)cc1 [ethyl 4-(4-cyanophenyl)-2-({2-[(5-nitro(2-pyridyl))amino]ethyl}amino)pyrimidine-5-carboxylate] | ≤ 1
CCOC(=O)c1cnc(NCCc2ccccn2)nc1-c1ccc(C#N)cc1 [ethyl 4-(4-cyanophenyl)-2-[(2-(2-pyridyl)ethyl)amino]-pyrimidine-5-carboxylate] | ≤ 10
CCNC(=O)c1ccc(NCCNc2ncc(C(=O)OCC)c(-c3ccc(C#N)cc3)n2)nc1 [ethyl 4-(4-cyanophenyl)-2-[(2-{[5-(N-ethylcarbamoyl)(2-pyridyl)]amino}-ethyl)amino]pyrimidine-5-carboxylate] | ≤ 10
CCOC(=O)c1cnc(NCCNc2ccc(C(=O)N3CCOCC3)cn2)nc1-c1ccc(C#N)cc1 [ethyl 4-(4-cyanophenyl)-2-[(2-{[5-(morpholin-4-ylcarbonyl)(2-pyridyl)]amino}ethyl)amino]pyrimidine-5-carboxylate] | ≤ 10
